Data reported in US9833423B2 (KOREA RESEARCH INSTITUTE OF CHEMICAL TECHNOLOGY, priority 2011, dated 2017).
Values after ≈ are worked out from the molar mass of the structure shown. Read-outs that look alike come from different tables or passages of the source.

Tests used:
Rhino 85 = assay: Multicycle CPE reduction assay; format: cell-based, rhinovirus 85; conditions: Enterovirus; 37° C. in HeLa cells
Procedure: (§1) The test compounds were evaluated for anti-picornavirus activity by a multicycle cytopathic effect (CPE) reduction assay. The antiviral activity was initially determined using an MTS [3-(4,5-dimethylthiazol-2-yl)-5-(3-carboxymethoxyphenyl)-2-(4-sulfophenyl)-2H-tetrazolium]-based CPE reduction assay.
(§2) In this regard, cells grown to confluence in 96-well plates were infected with 100 50% cell culture infective doses (CCID50) of virus. After an adsorption period of 2 hrs at 37° C., virus was removed and serial dilutions of the compounds were added. […] After removal of the medium, 90 μl of a culture medium and 10 μl of MTS-phenazine methosulfate (Promega, Leiden, The Netherlands) were added to each well. After an incubation period of 2 hrs at 37° C., the optical density (OD) of each well was read at 498 nm in a microplate reader.
(§3) CPE values for evaluating antiviral activity were calculated using the following Mathmatic Formula 3: […]
(§4) The 50% effective concentration (EC50) and the 50 cytotoxic concentration (CC50) were defined as the concentrations of compound that offered 50% protection against virus-induced CPE and that killed cells by 50%, respectively, and were calculated using logarithmic interpolation.

Coxsackie A21 = assay: Multicycle CPE reduction assay; format: cell-based, Coxsackievirus A21; conditions: Enterovirus C, A21, MRC5, read-out: Coxsackie A21 EC50
Rhino 42 = assay: Multicycle CPE reduction assay; format: cell-based, rhinovirus 42; conditions: Enterovirus; 37° C. in HeLa cells
Procedure: as §1, §2, §3, §4

Rhino 70 = assay: Multicycle CPE reduction assay; format: cell-based, rhinovirus 70
Procedure: as §1, §2, §3, §4

in vitro = conditions: human, CC50
Echo 9 = assay: Multicycle CPE reduction assay; format: cell-based, echovirus 9; conditions: Enterovirus B, MRC5; 37° C. in MRC-5 cells
Procedure: as §1, §2, §3, §4

Rhino 15 = assay: Multicycle CPE reduction assay; format: cell-based, rhinovirus 15; conditions: Enterovirus; 37° C. in HeLa cells
Procedure: as §1, §2, §3, §4

Coxsackie-virus A24 (HG) = assay: Cytopathic effect (CPE) inhibition assay; format: cell-based, Coxsackievirus A24; conditions: Table 3, MRC-5, 37° C., 2 days; for EC50: Enterovirus C, MRC5, 48 h
Coxsackie A16 = assay: Multicycle CPE reduction assay; format: cell-based, Coxsackievirus A16; conditions: Enterovirus A, A16, MRC5; 37° C. in MRC-5 cells
Procedure: as §1, §2, §3, §4

Coxsackie-virus B3 = assay: Cytopathic effect (CPE) inhibition assay; format: cell-based, Coxsackievirus B3; conditions: Table 3, HeLa, 37° C., 2 days; for EC50: Enterovirus B, HeLa37, 48 h, read-out: EC50 Coxsackie-virus B3
[1] = system: coxsackieviruses B3, A16, A9, and A21; assay: Multicycle CPE reduction assay, text summary; format: cell-based; conditions: Table 5; read-out: EC50 against coxsackieviruses B3, A16, A9, and A21
Procedure: as §1, §2, §3, §4

Rhino 72 = assay: Multicycle CPE reduction assay; format: cell-based, rhinovirus 72; conditions: Enterovirus; 37° C. in HeLa cells
Procedure: as §1, §2, §3, §4

uninfected cell cultures = assay: Cytotoxicity (CC50), MTS-based multicycle CPE reduction assay, Experimental Example 2; format: cell-based
Procedure: as §1, §2
(§5) CPE values for evaluating cytotoxicity were calculated using the following Mathmatic Formula 4: […]
as §4

[2] = as above; format: cell-based; conditions: Table 5
Procedure: as §1, §2, §5, §4

Rhino 63 = assay: Multicycle CPE reduction assay; format: cell-based, rhinovirus 63; conditions: Enterovirus; 37° C. in HeLa cells
Procedure: as §1, §2, §3, §4

Rhino 86 = assay: Multicycle CPE reduction assay; format: cell-based, rhinovirus 86; conditions: Enterovirus; 37° C. in HeLa cells
Procedure: as §1, §2, §3, §4

Entero-virus 70 = assay: Cytopathic effect (CPE) inhibition assay; format: cell-based, Enterovirus 70; conditions: Enterovirus D, MRC5, 48 h; Table 3; MRC-5, 37° C., 2 days
Polio-virus 3 = assay: microbe, parasite or virus in culture; format: cell-based, Poliovirus 3; conditions: for EC50: Enterovirus C, HeLa37, 48 h, read-out: EC50 Polio-virus 3
Rhino 41 = assay: Multicycle CPE reduction assay; format: cell-based, rhinovirus 41; conditions: Enterovirus; 37° C. in HeLa cells
Procedure: as §1, §2, §3, §4

Rhino 29 = assay: Multicycle CPE reduction assay; format: cell-based, rhinovirus 29; conditions: Enterovirus; 37° C. in HeLa cells
Procedure: as §1, §2, §3, §4

Echo 11 = assay: Multicycle CPE reduction assay; format: cell-based, echovirus 11; conditions: Enterovirus B; 37° C. in BGM cells
Procedure: as §1, §2, §3, §4

Entero 71 = assay: Multicycle CPE reduction assay; format: cell-based, enterovirus 71; conditions: Enterovirus A; 37° C. in RD cells
Procedure: as §1, §2, §3, §4

Coxsackie-virus B1 = assay: Cytopathic effect (CPE) inhibition assay; format: cell-based, Coxsackievirus B1; conditions: Table 3, HeLa, 37° C., 2 days; for EC50: Enterovirus B, HeLa37, 48 h, read-out: EC50 Coxsackie-virus B1
Coxsackie B3 = assay: Multicycle CPE reduction assay; format: cell-based, Coxsackievirus B3; conditions: Enterovirus B, 37° C. in Vero cells
Procedure: as §1, §2, §3, §4

Polio 3 = assay: microbe, parasite or virus in culture; format: cell-based, poliovirus 3; conditions: Enterovirus C, BGM, read-out: Polio 3 EC50
Rhino 2 = assay: Multicycle CPE reduction assay; format: cell-based, rhinovirus 2; conditions: Enterovirus; 37° C. in HeLa cells
Procedure: as §1, §2, §3, §4

Rhino 45 = assay: Multicycle CPE reduction assay; format: cell-based, rhinovirus 45; conditions: 37° C. in HeLa cells
Procedure: as §1, §2, §3, §4

Rhino 39 = assay: Multicycle CPE reduction assay; format: cell-based, rhinovirus 39; conditions: Enterovirus; 37° C. in HeLa cells
Procedure: as §1, §2, §3, §4

Rhino 89 = assay: Multicycle CPE reduction assay; format: cell-based, rhinovirus 89; conditions: Enterovirus; 37° C. in HeLa cells
Procedure: as §1, §2, §3, §4

Rhino 14 = assay: Multicycle CPE reduction assay; format: cell-based, rhinovirus 14; conditions: Enterovirus; 37° C. in HeLa cells
Procedure: as §1, §2, §3, §4

Rhino 9 = assay: Multicycle CPE reduction assay; format: cell-based, rhinovirus 9; conditions: Enterovirus; 37° C. in HeLa cells
Procedure: as §1, §2, §3, §4

Polio 1 = assay: microbe, parasite or virus in culture; format: cell-based, poliovirus 1; conditions: Enterovirus C, BGM, read-out: Polio 1 EC50
Coxsackie A9 = assay: Multicycle CPE reduction assay; format: cell-based, Coxsackievirus A9; conditions: Enterovirus B, 37° C. in BGM cells
polioviruses 1, 2 and 3 = assay: organism not typed; format: cell-based; conditions: read-out: EC50 against polioviruses 1, 2 and 3
Coxsackie-virus A24 (DN) = assay: Cytopathic effect (CPE) inhibition assay; format: cell-based, Coxsackievirus A24; conditions: Table 3, MRC-5, 37° C., 2 days; for EC50: Enterovirus C, MRC5, 48 h
[3] = system: echovirus 9 and echovirus 11; assay: Multicycle CPE reduction assay, text summary; format: cell-based; conditions: Enterovirus B; Table 5; read-out: EC50 against echovirus 9 and echovirus 11
Coxsackie-virus B4 = assay: Cytopathic effect (CPE) inhibition assay; format: cell-based, Coxsackievirus B4; conditions: Enterovirus B, HeLa37, 48 h; Table 3; HeLa, 37° C., 2 days
Polio-virus 2 = assay: microbe, parasite or virus in culture; format: cell-based, Poliovirus 2; conditions: Enterovirus C, read-out: EC50 Polio-virus 2
[4] = system: mock-infected cells (HeLa, MRC-5, RD); conditions: human
Rhino 59 = assay: Multicycle CPE reduction assay; format: cell-based, rhinovirus 59; conditions: Enterovirus; 37° C. in HeLa cells
[5] = Enterovirus, HeLa, read-out: Rhino 70 EC50, 37° C. in HeLa cells

Compound | EC50 (Rhino 85) | CC50 (in vitro) | EC50 (Echo 9) | EC50 (Rhino 15) | EC50 (Coxsackie-virus A24 (HG)) | EC50 (Coxsackie-virus B3) | CC50 at 3 days [2] | EC50 (Rhino 63) | melting point | EC50 (Polio-virus 3) | EC50 (Rhino 41) | EC50 (Rhino 29) | EC50 (Echo 11) | EC50 (Entero 71) | EC50 (Coxsackie-virus B1) | EC50 (Rhino 2) | EC50 (Rhino 45; Enterovirus, HeLa) | EC50 (Rhino 39) | EC50 (Rhino 89) | EC50 (Rhino 14) | other results
CC(=O)Oc1cc(C(C)C)ccc1C1(OC(C)=O)C(=O)c2ccccc2C1=O [Example 19, Acetic acid 2-(2-acetoxy-4-isopropyl-phenyl)-1,3-dioxo-indan-2-yl ester] | > 50 µM | 17.7 mg/L (≈ 46.5 µM) | 0.017 ± 0.0067 µM | > 50 µM | < 1 mg/L | < 0.01 mg/L | ≥ 100 µM | > 50 µM | 136 to 137 °C | < 1 mg/L | > 50 µM | > 50 µM | 0.017 ± 0.0078 µM | 0.1 ± 0.0018 µM | < 0.01 mg/L | > 50 µM | 4.6 ± 0.0083 µM | > 50 µM | > 50 µM | 0.45 ± 0.41 µM | EC50 (Coxsackie A21): 0.67 ± 0.13 µM; EC50 (Rhino 42): > 50 µM; EC50 (Rhino 70; [5]): 2 ± 0.12 µM; EC50 (Coxsackie A16): 0.064 ± 0.01 µM; EC50 [1]: 0.01 µM; EC50 (Rhino 72): 4.6 ± 0.092 µM; CC50 (uninfected cell cultures; Table 5, listed as Ex. 19): > 100 µM; EC50 (Rhino 86): 26 ± 18 µM; EC50 (Entero-virus 70): < 0.01 mg/L; EC50 (Coxsackie B3): < 0.01 µM; EC50 (Polio 3): < 1 µM; EC50 (Rhino 9): > 50 µM; EC50 (Polio 1): 0.79 ± 0.36 µM
CC(=O)Oc1cc(C(C)C)ccc1C1(OC(C)=O)C(=O)c2cccc(N)c2C1=O (centres unmarked) [Example 36, Acetic acid 2-(2-acetoxy-4-isopropyl-phenyl)-4-amino-1,3-dioxo-indan-2-yl ester] | 7.5 ± 1.2 µM | 9.42 mg/L (≈ 23.8 µM) | 0.011 ± 0.0032 µM | 1.5 ± 0.24 µM | < 0.01 mg/L | < 0.01 mg/L | > 50 µM | > 10 µM | 148 to 151 °C | < 0.01 mg/L | 0.54 ± 0.003 µM | 5.5 ± 0.72 µM | 0.0082 ± 0.0019 µM | 0.0067 µM | < 0.01 mg/L | 7.8 ± 0.57 µM | ≤ 0.078 µM | 1.4 ± 0.2 µM | 0.49 ± 0.038 µM | 0.35 ± 0.32 µM | EC50 (Coxsackie A9): 0.007 ± 0.00018 µM; EC50 (Rhino 70; Enterovirus, HeLa, 37° C. in HeLa cells, read-out: Rhino 70 EC50): ≤ 0.078 µM; EC50 (Rhino 70; read-out: Rhino 70 EC50, 37° C. in HeLa cells, listed as Ex. 36): > 0.078 µM; EC50 (polioviruses 1, 2 and 3): 0.01 µM; EC50 (Coxsackie B3): < 0.01 µM; EC50 (Polio 3): < 0.01 µM; EC50 (Coxsackie-virus A24 (DN)): < 0.1 mg/L; EC50 (Rhino 45; listed as Ex. 36): < 0.078 µM; EC50 (Rhino 9): 1.2 ± 0.12 µM; EC50 [3]: 0.0082 µM; EC50 (Polio 1): 0.22 ± 0.05 µM
CCCCC(=O)NC1(c2ccc(C(C)C)cc2OC(=O)CCCC)C(=O)c2ccccc2C1=O [Example 49, 2-(1,3-Dioxo-2-pentanamido-2,3-dihydro-1H-inden-2-yl)-5-isopropylphenyl pentanoate] | – | > 100 mg/L | – | – | < 1 mg/L | < 0.01 mg/L | – | – | – | < 1 mg/L | – | – | – | – | < 0.01 mg/L | – | – | – | – | – | EC50 (Coxsackie-virus B4): < 0.01 mg/L; EC50 (Coxsackie-virus A24 (DN)): < 1 mg/L; EC50 (Polio-virus 2): < 1 mg/L
CCCCC(=O)NC1(c2ccc(C(C)C)cc2OC(=O)CCCC)C(=O)c2ccccc2C1=O [Example 69, 2-(1,3-Dioxo-2-pentanamido-2,3-dihydro-1H-inden-2-yl)-5-isopropylphenyl pentanoate] | – | – | – | – | – | – | – | – | 128 to 130 °C | – | – | – | – | – | – | – | – | – | – | – | EC50 Coxsackie-virus A24 (HG) (Coxsackie-virus A24 (HG)): <1.0 mg/L; EC50 Coxsackie-virus B3 (Coxsackie-virus B3): <0.01 mg/L; CC50 [4]: >117 mg/L; EC50 Polio-virus 3 (Polio-virus 3; Table 3, HeLa, 37° C., 2 days): <1.0 mg/L; EC50 Coxsackie-virus B1 (Coxsackie-virus B1): <0.01 mg/L; EC50 Coxsackie-virus A24 (DN) (Coxsackie-virus A24 (DN)): <1.0 mg/L
CC(=O)Oc1cc(C)ccc1C1(OC(C)=O)C(=O)c2ccccc2C1=O [Example 74, 2-2-Acetoxy-1,3-dioxo-2,3-dihydro-1H-inden-2-yl] | > 50 µM | – | 0.61 ± 0.038 µM | > 50 µM | – | – | ≥ 100 µM | > 50 µM | 145 to 147 °C | – | > 50 µM | > 50 µM | 0.7 ± 0.24 µM | 3.3 ± 1.6 µM | – | > 50 µM | > 50 µM | > 50 µM | > 50 µM | > 50 µM | EC50 (Coxsackie A21): 26 ± 0.34 µM; EC50 (Rhino 42): > 50 µM; EC50 (Rhino 70; [5]): > 50 µM; EC50 (Coxsackie A16): 13 ± 0.32 µM; EC50 (Rhino 72): > 50 µM; CC50 (uninfected cell cultures; Table 5, listed as Ex. 74): > 100 µM; EC50 (Rhino 86): 26 ± 18 µM; EC50 (Rhino 9): > 50 µM; EC50 (Polio 1): 20 ± 14 µM; EC50 (Rhino 59): > 50 µM
